Earlier results as cited in paper PMC8198792, “Prediction of Anticancer Peptides with High Efficacy and Low Toxicity by Hybrid Model Based on 3D Structure of Peptides” (International Journal of Molecular Sciences, 2021).
Where two headings read alike, the source gives them in different places.

Tested on: cancer cell lines
Set-up: method as in 6 sources, ref CancerPPD [45] and SATPdb ||| ref CancerPPD/SATPdb ||| ref CancerPPD, SATPdb, Swissprot (PDB) ||| ref CancerPPD/SATPdb/Swissprot(PDB) ||| ref CancerPPD / SATPdb ||| ...
Conditions: cited from earlier work
Text: Supplement ijms-22-05630-s001.zip/ACPs(seguence).xlsx, sheet "D1" | column: Activity || Supplement ijms-22-05630-s001.zip/ACPs(seguence).xlsx, sheet "D2" | column: Activity || Supplement ijms-22-05630-s001.zip/ACPs(seguence).xlsx, sheet "D3" | column: Activity || (+ 2 further places)

[1] = ACPs dataset D1, label 1 = ACP, 0 = non-ACP (non-anticancer AMPs from SATPdb), ref CancerPPD/SATPdb
[2] = ACPs dataset D4 (sheet "D4"), label 1 = ACP (CancerPPD ID), 0 = non-ACP (non-anticancer AMP, SATPdb ID), ref CancerPPD [45] and SATPdb
[3] = ACPs dataset D3 (supplement sheet "D3"), 1 = ACP, 0 = non-ACP, ref CancerPPD [45] and SATPdb
[4] = ACPs dataset D5 (sheet "D5"), label 1 = ACP (positive set), 0 = non-ACP (negative set), ref CancerPPD [45] and SATPdb
[5] = ACPs dataset D1, 1 = ACP (positive), 0 = non-ACP (negative), label taken from databases, ref CancerPPD [45] and SATPdb
[6] = ACPs dataset D4 (sheet "D4"), label 1 = ACP, experimentally validated ACPs, ref CancerPPD [45] and SATPdb
[7] = ACPs dataset D5 (sheet "D5"), label 1 = ACP (positive set), sequences with CancerPPD/SATPdb ID, ref CancerPPD, SATPdb
[8] = ACPs dataset sheet D2, 1 = ACP (CancerPPD/SATPdb ID), 0 = non-ACP (Swissprot/PDB ID), ref CancerPPD, SATPdb, Swissprot (PDB)
[9] = ACPs dataset D2 (supplement ACPs(seguence).xlsx, sheet D2), dataset label 1/0 (ACP / non-ACP), entries identified by Swissprot(PDB ID), ref CancerPPD/SATPdb/Swissprot(PDB)
[10] = ACPs dataset D3 (sheet "D3"), label 1 = ACP, 0 = non-ACP, ref CancerPPD/SATPdb
[11] = ACPs dataset D4 (sheet "D4"), label 1 = ACP, 0 = non-ACP, ref CancerPPD / SATPdb
[12] = ACPs dataset D5, sheet "D5", label 1 = ACP, 0 = non-ACP, ref CancerPPD [45] and SATPdb

WNPFKELERAGQRVRDAIISAAPAVATVGQAAAIARG [satpdb12131]
Activity [1]: 0
Activity [2]: 0

KWKLFKKIGPGKFLHSAKKF [compound 1186]
Activity [3]: 1
Activity [2]: 1
Activity [4]: 1

PRFWEYWLRLAE [compound 4587]
Activity [5]: 1
Activity [6]: 1
Activity [7]: 1
Activity [8]: 1

MVEPLLSGIVLGLIVVTLAGLFYAAYKQYKRPNELGG [4OGQ X-ray 2.50,G,1-37]
Activity [9]: 0
Activity [4]: 0

FLKWLFKWAKK [compound 1716]
Activity [3]: 1
Activity [6]: 1
Activity [7]: 1

NGKQVCLDPEAPFLKKVIQKILDS [satpdb17154]
Activity [5]: 1
Activity [6]: 1
Activity [7]: 1
Activity [8]: 1

KWKSFLKTFKSlKKTVLHTLLKAISS [compound 3769]
Activity [3]: 1
Activity [2]: 1
Activity [4]: 1

LTFSDWWKLLAE [compound 5059]
Activity [5]: 1
Activity [6]: 1
Activity [7]: 1
Activity [8]: 1

GIGKFLKKAKKFAKAFVKIINN [compound 1117]
Activity [3]: 1
Activity [2]: 1
Activity [4]: 1

INLKAIAAMAKKL [satpdb11272]
Activity [5]: 0
Activity [2]: 0

GLLGPLLKIAAKVGSNLL [compound 4417]
Activity [5]: 1
Activity [6]: 1
Activity [7]: 1
Activity [8]: 1

KNWKAILKHIIK [satpdb13480]
Activity [10]: 0
Activity [11]: 0
Activity [12]: 0

GIFSKFGGKAIKNLFIKGAKNIGKEVGMDVIRTGIDVAGCKIKGEC [satpdb10976]
Activity [5]: 0
Activity [2]: 0

THRPPMWSPVWPGGGKLlLKlLkkLLKlLKKK [compound 4603]
Activity [3]: 1
Activity [2]: 1
Activity [4]: 1

GFLSILKKVLP [satpdb11215]
Activity [5]: 0
Activity [2]: 0

KAAKKAWKWAKKAAKWAKKAA [compound 4479]
Activity [5]: 1
Activity [6]: 1
Activity [7]: 1
Activity [8]: 1

VRRFPWWWAFLRR [satpdb11783]
Activity [3]: 0
Activity [11]: 0
Activity [12]: 0

KAYSTPRCKYLFRAVLCWL [satpdb14444]
Activity [10]: 0
Activity [11]: 0
Activity [12]: 0

NVWKKILGKIIKVVK [compound 4347]
Activity [3]: 1
Activity [2]: 1
Activity [4]: 1

MNQGKIWTVVNPAIGIPALLGSVTVIAILVHLAILSHTTWFPAYWQGGVKKAA [1KZU X-ray 2.50 A/D/G 1-53]
Activity [9]: 0
Activity [12]: 0

PDEDAINDALNKVCSTGRRQRSICKQLLKK [compound 3108]
Activity [5]: 1
Activity [6]: 1
Activity [7]: 1
Activity [8]: 1

AWASFFKKAAHVGKHVGKAALTHYL [satpdb11738]
Activity [1]: 0
Activity [2]: 0

CLRIGMRGRELMGGIGKTM [satpdb12393]
Activity [1]: 0
Activity [2]: 0

KKLLKWLKKLL [satpdb14598]
Activity [10]: 0
Activity [11]: 0
Activity [12]: 0

FLGALAKIISGIF [satpdb11200]
Activity [5]: 0
Activity [2]: 0

GLFDVIKKVASVIGGL [compound 1421]
Activity [3]: 1
Activity [2]: 1
Activity [4]: 1

GIFLKVLGVGKKVLCGVSGLC [satpdb12520]
Activity [1]: 0
Activity [2]: 0

MAELQERIRHFWKESRRAFLVTKKPNWATYKRAAKITGLGIILIGLIGMLIRIVGILILGG [3MP7 X-ray 2.90 B 1-61]
Activity [9]: 0
Activity [12]: 0

KNWKK-Aib-LKK-Aib-IK-Aib-VK [compound 3503]
Activity [3]: 1
Activity [2]: 1
Activity [4]: 1

SCASRCKGHCRARRCGYYVSVLYRGRCYCKCLRC [2EEM NMR - A 1-34]
Activity [4]: 0
Activity [8]: 0

PRAWEYWLRLME [compound 4582]
Activity [5]: 1
Activity [6]: 1
Activity [7]: 1
Activity [8]: 1

CTTGPCCRQCKLKPAGTTCWKTSLTSHYCTGKSCDCPLYPG [1MPZ NMR - A 1-41]
Activity [9]: 0
Activity [4]: 0

MWKWFHNVLSWWWLLADKRPARDYNRK [compound 3074]
Activity [5]: 1
Activity [6]: 1
Activity [7]: 1
Activity [8]: 1

VSRRRRRRGGRRRR [satpdb11057]
Activity [5]: 0
Activity [2]: 0

KGRGKRRRCKQRPSDCPRR [satpdb22253]
Activity [5]: 1
Activity [6]: 1
Activity [7]: 1
Activity [8]: 1

TMPFLFCNVNDCNFASRNDYSYWL [satpdb12405]
Activity [5]: 1
Activity [6]: 1
Activity [7]: 1
Activity [8]: 1

KWKSFlKTFKSlKKTVlHTlLKAISS [compound 3772]
Activity [3]: 1
Activity [2]: 1
Activity [4]: 1

KWkSFLkTFkSLKkTVLHTLLkAISS [compound 3764]
Activity [3]: 1
Activity [2]: 1
Activity [4]: 1

TSWSQCSKTCGTGISTRV [satpdb19109]
Activity [5]: 1
Activity [6]: 1
Activity [7]: 1
Activity [8]: 1

FLPKTLRKFFCRIRGGRCAVLNCLGKEEQIGRCSNSGRKCCRKKK [satpdb12338]
Activity [1]: 0
Activity [2]: 0

FLGMIPGLIGGLISAFK [compound 3125]
Activity [3]: 1
Activity [6]: 1
Activity [7]: 1

GLPRKILAAIAKKK [satpdb14133]
Activity [10]: 0
Activity [11]: 0
Activity [12]: 0

APRLPQCQGDDQEKCLCNKDECPPGQCRFPRGDADPYCE [1DEC NMR - A 1-39]
Activity [9]: 0
Activity [4]: 0

VOLOfPVOLfP [satpdb12074]
Activity [10]: 0
Activity [11]: 0
Activity [12]: 0

GVFGLLAKAALKGASKLIPHLLPSRQQ [satpdb12176]
Activity [1]: 0
Activity [2]: 0

GIGKFLHSAKKFAKAFVAEIMNS [compound 1047]
Activity [3]: 1
Activity [2]: 1
Activity [4]: 1

KDCKRESNTFPGICITKPPCRKACIREKFTDGHCSKILRRCLCTKPC [5KK4 X-ray 1.70 A/B/C/D/E/F 1-47]
Activity [9]: 0
Activity [4]: 0

GLLKRIKTLL [2MJQ NMR - A 1-10]
Activity [4]: 0
Activity [8]: 0

NPEDWFTPDTCAYGDSNTAWTTCTTPGQTCYTCCSSCFDVVGEQACQMSAQC [2KC6 NMR - A 1-52]
Activity [9]: 0
Activity [12]: 0

KLLKKLLKWLK [satpdb13967]
Activity [10]: 0
Activity [11]: 0
Activity [12]: 0

FAKKLAKLAKKLAKLAL [compound 1787]
Activity [3]: 1
Activity [6]: 1
Activity [7]: 1

RDCTSQSHKFVGLCLSDRNCASVCLTEYFTGGKCDHRRCVCTKGC [satpdb13162]
Activity [1]: 0
Activity [11]: 0

GLFKVIKKVASVIGGL [compound 4147]
Activity [3]: 1
Activity [2]: 1
Activity [4]: 1
